Measurements published in article PMC7961380, “A Systematic Study of the In Vitro Pharmacokinetics and Estimated Human In Vivo Clearance of Indole and Indazole-3-Carboxamide Synthetic Cannabinoid Receptor Agonists Detected on the Illicit Drug Market” (Molecules, 2021).

Tests used:
[1] = Metabolic stability, pooled human liver microsome incubations; conditions: for % parent compound remaining, Average / Microsomal Intrinsic Clearance, CLint micr / Intrinsic clearance, CLint: pHLM; for Microsomal Intrinsic Clearance, CLint micr / T1/2: n ≥ 3 ± SD; for T1/2: pHLM 0.5 mg mL^−1, 0.5 µM, NADPH, 37 °C
Description: Total incubation volume was 500 µL. Procedure: Test compound working solutions (50 µM in potassium phosphate buffer (pH 7.4)) were prepared (<1% DMSO). pHLM were thawed and diluted in potassium phosphate buffer (pH 7.4). […] Reactions were quenched in 200 µL ACN spiked with donepezil (IS, 50 ng mL^−1). […] Samples were analysed by UPLC-MS/MS in a 96 deep-well 2 mL plate. Each SCRA was incubated at least in triplicate but additional incubations were carried out across a number of analytical batches, giving greater replication and a greater understanding of system variability. Microsomal scaling factors used for human liver microsome incubations in the literature vary. Intrinsic clearance and predicted in vivo clearance rates calculated using alternative scaling factors found in the literature is provided in Section S6 of the supplementary information, to aid comparison of data between publications.
Equations used for in vitro intrinsic clearance calculation and human in vivo clearance […]
The equations used for in vitro intrinsic clearance calculation and human in vivo clearance estimation […]
Microsomal clearance (HLM incubations) in mL min-1 mg microsomal protein-1 [3]
Intrinsic clearance (whole-liver dimensions) (HLM incubations) in mL min-1 kg-1 [3] CL = k x V x [Liver](g) x SF Eqn. 7 […]
mg g microsomal protein-1 [7]
Intrinsic clearance (whole-liver dimensions) (HHep incubations) in mL min-1 kg-1 [4] CL = k x V x hepatocytes/g liver x [Liver](g) Eqn. 8 […]
Where: hepatocytes/g liver = 107x10^6 cells/g liver
Hepatic clearance in mL min-1 kg-1 [3]
[…] Eqn. 9
Where: Q = hepatic blood flow, 21 mL min-1 kg-1 [9]; fu = fraction unbound (plasma); CLint = […]
Estimated human hepatic extraction ratio [5]
Intrinsic clearance data – pooled human liver microsome incubations […]
table S4-28. Intrinsic clearance and predicted in vivo data calculated using alternative microsomal scaling factors found in the literature – 32 [10] and 45 [11] mg microsomal protein per gram liver – are provided in tables S29 and S30, respectively.

[2] = test system: pooled human cryopreserved hepatocytes (pHHeps); assay: Metabolic stability, pooled human cryopreserved hepatocyte incubations; conditions: for % parent compound remaining, Average / Intrinsic clearance, CLint: pHHeps; for T1/2: pHHeps 0.25 million cells mL^−1, 0.5 µM, 37 °C, n ≥ 3 ± SD
[3] = alternative microsomal scaling factor 45 mg microsomal protein per gram liver
[4] = alternative hepatocyte cell density 99x10^6 hepatocytes per gram liver

Row | Compound | % parent compound remaining, Average ([1]; 3 min) [%] | % parent compound remaining, Average ([1]; 6 min) [%] | % parent compound remaining, Average ([1]; 9 min) [%] | % parent compound remaining, Average ([1]; 15 min) [%] | % parent compound remaining, Average ([1]; 30 min) [%] | Microsomal Intrinsic Clearance, CLint micr [1] | % parent compound remaining, Average ([2]; 3 min) [%] | % parent compound remaining, Average ([2]; 6 min) [%] | % parent compound remaining, Average ([2]; 9 min) [%] | % parent compound remaining, Average ([2]; 15 min) [%] | % parent compound remaining, Average ([2]; 30 min) [%] | % parent compound remaining, Average ([2]; 45 min) [%] | % parent compound remaining, Average ([2]; 60 min) [%] | further results
1 | COC(=O)C(NC(=O)c1nn(CCCCCF)c2ccccc12)C(C)C (stereo in doubt) [(R)-5F-AMB-PINACA (10), methyl [1-(5-fluoropentyl)-1H-indazole-3-carbonyl]valinate] | 64.1 | 51.0 | 38.0 | 21.7 | 6.8 | 0.213 ± 0.014 mL min^−1 mg Microsomal Protein^−1 | 69.9 | 35.6 | 28.2 | 12.1 | 3.1 | 0.9 | 0.2 | –
2 | COC(=O)C(NC(=O)c1cn(CC2CCCCC2)c2ccccc12)C(C)C (stereo in doubt) [(R)-AMB-CHMICA (9), methyl [1-(cyclohexylmethyl)-1H-indole-3-carbonyl]valinate] | 73.0 | 53.6 | 47.4 | 30.4 | 11.3 | 0.167 ± 0.019 mL min^−1 mg Microsomal Protein^−1 | 62.7 | 61.2 | 45.1 | 26.7 | 11.8 | 5.9 | 3.2 | –
3 | COC(=O)C(NC(=O)c1nn(Cc2ccc(F)cc2)c2ccccc12)C(C)C (stereo in doubt) [(R)-AMB-FUBINACA (1), methyl [1-(4-fluorobenzyl)-1H-indazole-3-carbonyl]valinate] | 57.2 | 46.7 | 34.5 | 20.5 | 6.8 | 0.237 ± 0.020 mL min^−1 mg Microsomal Protein^−1 | 41.1 | 22.5 | 21.4 | 12.3 | 2.7 | 0.9 | 0.8 | –
4 | CCOc1ccc2ccc(=O)oc2c1 [7-ethoxycoumarin, reference compound] | – | – | – | – | – | – | 91.4 | 89.4 | 80.0 | 73.7 | 54.9 | 40.7 | 29.0 | Intrinsic clearance, CLint ([2]; scaled to whole liver, 107x10^6 cells/g liver): 55 to 305 mL/min/kg
5 | O=c1ccc2ccc(O)cc2o1 [7-hydroxycoumarin, reference compound] | – | – | – | – | – | – | 98.6 | 97.5 | 95.7 | 90.8 | 75.8 | 67.2 | 55.8 | intrinsic clearance rate ([2]; pHHeps positive control, range over batches): 46 to 238 min⁻¹ kg⁻¹
6 | CC(C)[C@@H](NC(=O)c1nn(Cc2ccc(F)cc2)c2ccccc12)C(N)=O [(R)-AB-FUBINACA (8), N-(1-amino-3-methyl-1-oxobutan-2-yl)-1-(4-fluorobenzyl)-1H-indazole-3-carboxamide] | 89.5 | 90.5 | 88.4 | 82.9 | 83.9 | 0.010 ± 0.003 mL min^−1 mg Microsomal Protein^−1 | 96.7 | 86.5 | 84.9 | 84.4 | 75.2 | 82.9 | 78.8 | T1/2 [1]: 145 ± 45 min; Intrinsic clearance, CLint [1, 3]: 11.8 mL/min/kg; T1/2 [2]: 69 ± 11 min; Intrinsic clearance, CLint [2, 4]: 105 ± 14.6 mL/min/kg
7 | CC(C)[C@@H](NC(=O)c1nn(CC2CCCCC2)c2ccccc12)C(N)=O [(R)-AB-[…] (11)] [N-[1-amino-3-methyl-1-oxobutan-2-yl]-1-(cyclohexylmethyl)-1H-indazole-3-carboxamide] | – | – | – | – | – | 0.033 ± 0.004 mL min^−1 mg Microsomal Protein^−1 | – | – | – | – | – | – | – | T1/2 [1]: 43 ± 5.0 min; % parent compound remaining, Average ([1]; 3 min, […]): 84.0%; % parent compound remaining, Average ([1]; 6 min, […]): 84.4%; % parent compound remaining, Average ([1]; 9 min, […]): 82.1%; % parent compound remaining, Average ([1]; 15 min, […]): 73.6%; % parent compound remaining, Average ([1]; 30 min, […]): 59.0%; Intrinsic clearance, CLint ([1]; alternative microsomal scaling factor 32 mg microsomal protein per gram liver): 26.9 mL/min/kg; Intrinsic clearance, CLint [1, 3]: 37.8 ± 4.19 mL/min/kg; T1/2 [2]: 38 ± 8.7 min; % parent compound remaining, Average ([2]; 3 min, […]): 91.3%; % parent compound remaining, Average ([2]; 6 min, […]): 89.8%; % parent compound remaining, Average ([2]; 9 min, […]): 88.6%; % parent compound remaining, Average ([2]; 15 min, […]): 86.6%; % parent compound remaining, Average ([2]; 30 min, […]): 73.0%; % parent compound remaining, Average ([2]; 45 min, […]): 75.2%; % parent compound remaining, Average ([2]; 60 min, […]): 76.2%; Intrinsic clearance, CLint [2, 4]: 197 ± 50.3 mL/min/kg
